Data from paper PMC11952234, “Functional profiling of synthetic camel milk-derived peptides with implication in glucose transport and diabetes” (PLOS One, 2025).
Values joined by “and” are separate entries in the source; they are usually repeats but may differ in a detail not shown here. Equal values may be shown once. Read-outs that look alike come from different tables or passages of the source. Marks after values point to notes of the source that are not given here. Residues, ends and D or L forms follow the SMILES beside them.

Experiments:
[1] = molecular target: T1, insulin receptor (IR); interaction of IR-Rluc with IRS1-YFP in HEK293 cells (Homo sapiens, UniProt P06213); assay: BRET assay of IR activation (IR-Rluc/IRS1-YFP), single treatment, dose-response; format: cell-based; details: HEK293, 1 hour, 37°C, minimal data set for Figure 1, average
T1 construct: expressed in transfected cells; host or cells: HEK293 cells, transient co-transfection; plasmids provided by Dr. Tarik Issad (Cochin Institute, Paris)
T1 sequence (P06213 28-758 limits assumed): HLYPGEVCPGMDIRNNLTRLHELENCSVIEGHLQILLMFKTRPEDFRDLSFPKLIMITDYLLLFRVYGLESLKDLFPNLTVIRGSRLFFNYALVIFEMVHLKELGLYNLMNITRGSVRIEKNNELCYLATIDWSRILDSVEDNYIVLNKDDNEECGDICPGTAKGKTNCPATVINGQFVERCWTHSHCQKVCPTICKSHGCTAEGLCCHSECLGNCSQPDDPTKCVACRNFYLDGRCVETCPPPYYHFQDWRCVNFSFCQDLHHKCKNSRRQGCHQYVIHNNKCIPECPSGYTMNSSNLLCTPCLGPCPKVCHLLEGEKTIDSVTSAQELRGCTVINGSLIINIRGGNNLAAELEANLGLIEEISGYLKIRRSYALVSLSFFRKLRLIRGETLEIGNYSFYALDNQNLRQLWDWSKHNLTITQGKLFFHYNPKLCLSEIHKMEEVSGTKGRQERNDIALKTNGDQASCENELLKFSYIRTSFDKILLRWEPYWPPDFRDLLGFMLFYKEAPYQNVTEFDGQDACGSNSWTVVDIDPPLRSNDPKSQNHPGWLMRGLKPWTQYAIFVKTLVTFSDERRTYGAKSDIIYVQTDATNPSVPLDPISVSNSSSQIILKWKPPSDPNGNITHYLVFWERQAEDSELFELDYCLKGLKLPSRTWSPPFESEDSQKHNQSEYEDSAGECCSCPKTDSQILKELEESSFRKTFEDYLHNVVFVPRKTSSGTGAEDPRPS
T1 sequence (P06213 763-1382 limits assumed): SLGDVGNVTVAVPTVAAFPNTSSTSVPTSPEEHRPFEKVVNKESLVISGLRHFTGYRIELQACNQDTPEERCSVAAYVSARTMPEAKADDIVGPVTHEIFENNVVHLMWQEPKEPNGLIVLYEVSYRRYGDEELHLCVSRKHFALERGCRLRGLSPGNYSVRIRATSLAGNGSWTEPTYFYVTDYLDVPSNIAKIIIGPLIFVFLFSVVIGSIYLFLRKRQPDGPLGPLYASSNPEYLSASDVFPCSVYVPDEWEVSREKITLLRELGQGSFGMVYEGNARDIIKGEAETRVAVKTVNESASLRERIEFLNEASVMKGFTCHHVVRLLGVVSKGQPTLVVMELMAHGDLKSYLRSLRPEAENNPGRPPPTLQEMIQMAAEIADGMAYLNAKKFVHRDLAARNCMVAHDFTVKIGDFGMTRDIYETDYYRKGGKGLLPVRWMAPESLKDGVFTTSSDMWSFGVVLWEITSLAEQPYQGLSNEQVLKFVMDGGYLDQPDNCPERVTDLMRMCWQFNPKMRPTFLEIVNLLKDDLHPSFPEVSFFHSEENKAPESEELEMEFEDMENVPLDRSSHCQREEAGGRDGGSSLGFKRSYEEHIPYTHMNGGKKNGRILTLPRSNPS
Experimental: (§1) HepG2 and HEK293 cells were maintained at 37°C, 5% CO2 in complete RPMI and Dulbecco’s modified Eagle’s medium (DMEM), respectively, containing 0.3 mg/ml glutamine, 100 IU/ml penicillin, and 100 µg/ml streptomycin) supplemented with 10% fetal calf serum (Gibco, Carlsbad, CA, USA). The transient transfection in HEK293 cells was carried out in 75 cm flask containing 10^7 cells using Lipofectamine 2000 and 5 µg of IR-Rluc and 5 µg of IRS1-YFP (for BRET and phosphorylation experiments) as previously described. All assays were performed 48 hours post-transfection.
(§2) BRET technology was used for IR activation and its interaction with IRS1 as previously described. […] Following treatments, 10 μl of Coelenterazine h was added to a final concentration of 5 µ M and BRET measurements were carried out using the Tristar 2 multi-label plate reader (Berthold, Germany), allowing luminescence recording and signal integration at 480 nm and 540 nm.
(§3) Statistical analyses were performed statistical significance between the different treatments and conditions as indicated in the figures and tables and their captions. […] The significance is indicated in the figures by stars (****p-value < 0.0001, ***p-value < 0.001, ** p-value < 0.01, * p-value < 0.05), and the absence of stars means non-significant (p-value > 0.05). However, the two-way ANOVA was used for multiple comparisons to determine the statistical significance between the different peptides when compared to each other in the different assays as described in the tables.

[2] = test system: insulin receptor (IR); insulin-induced IR-Rluc/IRS1-YFP BRET in HEK293 cells; assay: BRET assay of IR activation, peptides combined with insulin; format: cell-based, human; details: for insulin-induced BRET, % of insulin's response in the vehicle, Average: Average of Experiments 1-7; for insulin-induced BRET, % of insulin's response in the vehicle, Average / insulin-induced BRET, % of insulin's response in the vehicle / % of maximal BRET (insulin-induced): 1 μM insulin + 0.1 mg/ml peptide; for insulin-induced BRET, % of insulin's response in the vehicle, Average / insulin-induced BRET, % of insulin's response in the vehicle: HEK293, minimal data set for Figure 2; for % of maximal BRET (insulin-induced) / profile on insulin-dependent BRET response in combined treatment (in words): HEK293 cells; for % of maximal BRET (insulin-induced): 1 hour, 37°C, % of insulin's response in the vehicle taken as 100%, mean ± SD of five to seven independent experiments in triplicate; for profile on insulin-dependent BRET response in combined treatment (in words): 0.1 mg/ml peptide + 1 μM insulin, compared to insulin alone (Vehicle)
Experimental: as §1, §2
as §3, with “For BRET, the data were normalized by taking as 100% of the maximal insulin-induced BRET signal in the vehicle and analyzed using GraphPad Prism software (San Diego, CA, USA). Statistical” for “Statistical”, “tables. In this case, the different letters indicate statistically significant effects (p-value < 0.05), while the same letters indicate no significant difference between the different treatments compared to each other.” for “tables.”

HepG2 cells = assay: Glucose uptake assay (Glucose Uptake-Glo) in HepG2 cells; format: cell-based, human; details: 1 hour, 37°C; for glucose uptake, specific luminescence signal, Average: Average of Experiments 1-5, HepG2, 0.1 mg/ml peptide or 1 μM insulin, minimal data set for Figure 5; for % of glucose uptake: HepG2 cells, 0.1 mg/ml peptide or 1 μM insulin, % of insulin's response taken as 100%, mean ± SD of five independent experiments in triplicate
Experimental: Glucose uptake in HepG2 cells was carried out using Glucose Uptake-Glo Assay (Promega). For this, cells seeded in a 96-well white plate (50,000 cells/well) were first washed with PBS and starved in phenol red-, glucose-, and serum-free medium (Dulbecco’s modified Eagle’s medium containing 0.01 mM HEPES, 0.3 mg/ml glutamine, 100 IU/ml penicillin, and 100 µg/ml streptomycin). […] The treatment was removed, and the cells were washed once with PBS and then incubated with 50 μL/well of freshly prepared 2-deoxyglucose (500 μM) for 10 minutes at room temperature. The uptake process was stopped and neutralized, followed by the addition of 50 μl/well of 2-deoxyglucose-6-phosphate (2DG6P) detection reagent and incubation for 15-60 minutes at room temperature. The glucose-6-phosphate dehydrogenase (G6PDH) oxidizes 2DG6P to 6-phosphodeoxygluconate (6PDG) and reduces NADP + to NADPH. The reductase uses NADPH to convert the proluciferin to luciferin, which is then used by Ultra-Glo™ recombinant luciferase to produce luminescence. This luminescence, proportional to the amount of 2-deoxyglucose transported inside the cells upon treatment, was then measured using a 0.3–1 second integration on GloMax® Discover luminometer according to Glucose Uptake-Glo™ protocol.

[3] = test system: AKT phosphorylation (pAKT-S473) in HepG2 cells; assay: AKT phosphorylation by western blot in HepG2 cells; format: cell-based, human; details: 1 μM insulin + 0.1 mg/ml peptide, 10 minutes, 37°C
Experimental: Following treatment, cells were then lysed with RIPA lysis buffer and thereafter centrifuged at 12000 × g for 30 minutes. Thereafter, the extracted cell lysate proteins were quantified using the bicinchoninic acid (BCA) protein assay. To examine the phosphorylation status of IR and AKT, 30-40 μg of proteins were loaded on 10% SDS-PAGE gel followed by western blot using the following antibodies: the mouse monoclonal anti-phospho-IR (pIR-Tyr1334)(1:1000 dilution) and the mouse monoclonal anti-phospho-AKT (pAKT-S473)(1:2000 dilution) as previously described. The corresponding total proteins loaded were also analyzed in parallel using the specific antibodies against the native forms of the different proteins. Densitometry analysis of the different western blots was performed using Image Studio Version 5.2 software from LICOR (Lincoln, Nebraska, USA).

[4] = HEK293, read-out: BRET, % of the maximal response of insulin, Average, peptide 0.001 mg/ml
[5] = HEK293, read-out: BRET, % of the maximal response of insulin, Average, peptide 0.005 mg/ml
[6] = HEK293, read-out: BRET, % of the maximal response of insulin, Average, peptide 0.01 mg/ml
[7] = HEK293, read-out: BRET, % of the maximal response of insulin, Average, peptide 0.05 mg/ml
[8] = HEK293, read-out: BRET, % of the maximal response of insulin, Average, peptide 0.1 mg/ml
[9] = HEK293, read-out: BRET, % of the maximal response of insulin, Average, peptide 0.5 mg/ml
[10] = HEK293, read-out: BRET, % of the maximal response of insulin, Average, peptide 1 mg/ml

Row | Molecule | Emax [1, 4] | Emax [1, 5] | Emax [1, 6] | Emax [1, 7] | Emax [1, 8] | Emax [1, 9] | Emax [1, 10] | insulin-induced BRET, % of insulin's response in the vehicle, Average [2] | insulin-induced BRET, % of insulin's response in the vehicle ([2]; Experiment 1) | insulin-induced BRET, % of insulin's response in the vehicle ([2]; Experiment 2) | insulin-induced BRET, % of insulin's response in the vehicle ([2]; Experiment 3) | insulin-induced BRET, % of insulin's response in the vehicle ([2]; Experiment 4) | insulin-induced BRET, % of insulin's response in the vehicle ([2]; Experiment 5) | insulin-induced BRET, % of insulin's response in the vehicle ([2]; Experiment 6) | insulin-induced BRET, % of insulin's response in the vehicle ([2]; Experiment 7) | % of maximal BRET (insulin-induced) [2] | profile on insulin-dependent BRET response in combined treatment (in words) [2] | glucose uptake, specific luminescence signal, Average (HepG2 cells) | % of glucose uptake (HepG2 cells) | insulin-induced AKT phosphorylation, combined treatment (in words) [3]
1 | CC[C@H](C)[C@H](NC(=O)[C@@H]1CCCN1C(=O)[C@@H](N)Cc1ccc(O)cc1)C(=O)O [Peptide P9, YPI] (H-Tyr-Pro-Ile-OH; N-terminus and C-terminus assumed) | 3.3% | 14.7% | 24.7% | 29.3% | 40.2% | 39.3% | 31.7% | 108.5 | 96.6 | 93.8 | 107.9 | 136.4 | 113.3 | 127.9 | 83.8 | 109 ± 7^a % | non-efficient | 2361900 |  | 
2 | Human insulin [reference compound] |  |  |  |  |  |  |  |  |  |  |  |  |  |  |  | 100^a % |  | 2522500 | 100^a % | 
3 | CC(C)C[C@H](N)C(=O)N1CCC[C@H]1C(=O)N[C@H](C(=O)N1CCC[C@H]1C(=O)O)C(C)C [Peptide P6, LPVP] (H-LPVP-OH; N-terminus and C-terminus assumed) | 18.3% | 25.4% | 35% | 44.5% | 45.6% | 47.9% | 40.4% | 140.3 | 115.3 | 195.4 | 142.3 | 129.2 |  | 119.3 |  | 135 ± 13^d % | potentiating | 3425500 | 135 – 150% and 136 ± 16^d % | slightly potentiated

More lines, main results first:

Row | Emax [1, 4] | Emax [1, 5] | Emax [1, 6] | Emax [1, 7] | Emax [1, 8] | Emax [1, 9] | Emax [1, 10] | Molecule | insulin-induced BRET, % of insulin's response in the vehicle, Average [2] | insulin-induced BRET, % of insulin's response in the vehicle ([2]; Experiment 1) | insulin-induced BRET, % of insulin's response in the vehicle ([2]; Experiment 2) | insulin-induced BRET, % of insulin's response in the vehicle ([2]; Experiment 3) | insulin-induced BRET, % of insulin's response in the vehicle ([2]; Experiment 4) | insulin-induced BRET, % of insulin's response in the vehicle ([2]; Experiment 5) | insulin-induced BRET, % of insulin's response in the vehicle ([2]; Experiment 6) | insulin-induced BRET, % of insulin's response in the vehicle ([2]; Experiment 7) | % of maximal BRET (insulin-induced) [2] | profile on insulin-dependent BRET response in combined treatment (in words) [2] | glucose uptake, specific luminescence signal, Average (HepG2 cells) | % of glucose uptake (HepG2 cells) | insulin-induced AKT phosphorylation, combined treatment (in words) [3]
4 | 10.1% | 16.5% | 37.6% | 43% | 58.5% | 56.7% | 55.3% | CC(C)C[C@H](NC(=O)[C@H](Cc1ccccc1)NC(=O)[C@@H]1CCCN1C(=O)[C@H](CCCNC(=N)N)NC(=O)[C@@H](N)CC(C)C)C(=O)O [Peptide P1, LRPFL] (H-LRPFL-OH) | 103.6 | 73.6 | 47.0 | 66.9 | 125.9 | 98.2 | 190.8 | 122.6 | 104 ± 18^a % | non-efficient | 1669300 | 66 ± 18^b % | 
5 | 6% | 11% | 19.1% | 48.8% | 47.7% | 46.3% | 41.4% | CC(C)C[C@H](N)C(=O)N1CCC[C@H]1C(=O)N[C@H](C(=O)N1CCC[C@H]1C(=O)N[C@@H](CCC(N)=O)C(=O)O)C(C)C [Peptide P3, LPVPQ] (H-LPVPQ-OH; N-terminus and C-terminus assumed) | 110.8 | 81.5 | 130.9 | 81.8 | 135.0 | 93.0 | 152.3 | 100.8 | 111 ± 11^a % | non-efficient | 1788200 | 71 ± 12^b % | 
